# Values quoted from earlier work in EP4092126A1, “A METHOD OF ENZYMATIC REDUCTION OF THE OXIDIZED NICOTINAMIDE ADENINE DINUCLEOTIDE AND CARBOXYLIC ACIDS” (priority 2021, dated 2022).
# Like-named read-outs stand apart in the source and are kept apart here.
# What was measured:
# [1] = system: tungsten aldehyde oxidoreductase (AOR) from A. aromaticum; settings: 1 mM benzaldehyde, re-oxidized with NAD+, pH 8.0, 28°C, anaerobic conditions
# [2] = target: [NiFe] dehydrogenase from Ralstonia eutropha (Cupriavidus necator, UniProt P22317+P22320)
# Sequence of [NiFe] dehydrogenase from Ralstonia eutropha (Cupriavidus necator, UniProt P22317+P22320) (P22318 whole entry): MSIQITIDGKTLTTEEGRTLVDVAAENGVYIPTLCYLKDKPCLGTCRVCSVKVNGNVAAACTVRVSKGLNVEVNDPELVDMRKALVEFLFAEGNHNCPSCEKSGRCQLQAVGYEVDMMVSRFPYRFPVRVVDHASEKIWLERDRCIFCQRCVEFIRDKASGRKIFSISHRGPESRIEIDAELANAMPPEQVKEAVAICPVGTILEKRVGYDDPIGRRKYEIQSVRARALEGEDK
# Sequence of [NiFe] dehydrogenase from Ralstonia eutropha (Cupriavidus necator, UniProt P22317+P22320) (P22320 1-464): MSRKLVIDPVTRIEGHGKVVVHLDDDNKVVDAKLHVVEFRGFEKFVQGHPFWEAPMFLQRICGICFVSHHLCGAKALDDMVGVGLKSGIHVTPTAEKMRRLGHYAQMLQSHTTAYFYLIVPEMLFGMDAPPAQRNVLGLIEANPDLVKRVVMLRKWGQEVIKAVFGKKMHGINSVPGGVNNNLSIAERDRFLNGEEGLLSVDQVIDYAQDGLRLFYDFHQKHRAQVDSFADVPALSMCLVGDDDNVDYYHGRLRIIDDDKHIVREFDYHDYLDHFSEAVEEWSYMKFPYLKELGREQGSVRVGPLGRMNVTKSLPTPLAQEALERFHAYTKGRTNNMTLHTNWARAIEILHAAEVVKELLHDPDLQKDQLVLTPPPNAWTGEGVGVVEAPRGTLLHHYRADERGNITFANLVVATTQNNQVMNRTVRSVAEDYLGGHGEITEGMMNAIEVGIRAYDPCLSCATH
# Sequence of [NiFe] dehydrogenase from Ralstonia eutropha (Cupriavidus necator, UniProt P22317+P22320) (P22319 whole entry, further chain): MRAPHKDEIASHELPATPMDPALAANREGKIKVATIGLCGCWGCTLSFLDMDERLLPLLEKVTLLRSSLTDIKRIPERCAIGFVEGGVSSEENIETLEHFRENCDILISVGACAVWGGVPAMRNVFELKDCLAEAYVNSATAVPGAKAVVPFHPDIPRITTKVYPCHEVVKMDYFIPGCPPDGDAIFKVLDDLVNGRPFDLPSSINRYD
# Sequence of [NiFe] dehydrogenase from Ralstonia eutropha (Cupriavidus necator, UniProt P22317+P22320) (P22317 whole entry): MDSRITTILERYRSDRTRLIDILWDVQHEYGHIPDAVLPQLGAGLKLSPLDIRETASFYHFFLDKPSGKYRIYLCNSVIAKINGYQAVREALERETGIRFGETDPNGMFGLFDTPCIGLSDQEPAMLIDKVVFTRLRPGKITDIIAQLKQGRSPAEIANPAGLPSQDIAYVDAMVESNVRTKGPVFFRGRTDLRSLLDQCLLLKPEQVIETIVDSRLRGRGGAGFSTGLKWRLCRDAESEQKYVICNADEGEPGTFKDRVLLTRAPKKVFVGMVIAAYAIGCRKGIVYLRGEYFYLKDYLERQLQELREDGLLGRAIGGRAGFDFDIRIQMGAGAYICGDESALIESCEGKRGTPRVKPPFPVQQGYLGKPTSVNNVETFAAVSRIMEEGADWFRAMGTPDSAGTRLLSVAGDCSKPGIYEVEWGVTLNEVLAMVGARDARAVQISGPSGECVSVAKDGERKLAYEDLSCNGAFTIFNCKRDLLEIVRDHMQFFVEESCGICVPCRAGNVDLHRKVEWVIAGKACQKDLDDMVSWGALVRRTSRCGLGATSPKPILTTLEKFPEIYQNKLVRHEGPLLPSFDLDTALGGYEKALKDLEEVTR
# [3] = target: T1, phosphine dehydrogenase (PTDH) (Stutzerimonas stutzeri, UniProt O69054); settings: read-out: Km (NAD^+)
# T1 sequence (O69054 1-336): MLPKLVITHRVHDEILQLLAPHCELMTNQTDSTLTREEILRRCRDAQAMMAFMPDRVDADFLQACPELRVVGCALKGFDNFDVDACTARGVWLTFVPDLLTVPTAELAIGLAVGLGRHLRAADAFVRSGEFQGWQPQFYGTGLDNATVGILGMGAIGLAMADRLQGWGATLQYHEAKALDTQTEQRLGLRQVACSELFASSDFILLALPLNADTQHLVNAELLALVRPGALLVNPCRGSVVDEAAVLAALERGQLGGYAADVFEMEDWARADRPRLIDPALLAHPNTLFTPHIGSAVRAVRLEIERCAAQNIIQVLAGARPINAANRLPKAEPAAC
# [4] = target: T2, AOR (Aromatoleum aromaticum, UniProt Q5P142+Q5P143); settings: 1 mM benzaldehyde, pH 8.0, 28°C, anaerobic; read-out: Km versus NAD^+
# T2 sequence (Q5P143 1-616): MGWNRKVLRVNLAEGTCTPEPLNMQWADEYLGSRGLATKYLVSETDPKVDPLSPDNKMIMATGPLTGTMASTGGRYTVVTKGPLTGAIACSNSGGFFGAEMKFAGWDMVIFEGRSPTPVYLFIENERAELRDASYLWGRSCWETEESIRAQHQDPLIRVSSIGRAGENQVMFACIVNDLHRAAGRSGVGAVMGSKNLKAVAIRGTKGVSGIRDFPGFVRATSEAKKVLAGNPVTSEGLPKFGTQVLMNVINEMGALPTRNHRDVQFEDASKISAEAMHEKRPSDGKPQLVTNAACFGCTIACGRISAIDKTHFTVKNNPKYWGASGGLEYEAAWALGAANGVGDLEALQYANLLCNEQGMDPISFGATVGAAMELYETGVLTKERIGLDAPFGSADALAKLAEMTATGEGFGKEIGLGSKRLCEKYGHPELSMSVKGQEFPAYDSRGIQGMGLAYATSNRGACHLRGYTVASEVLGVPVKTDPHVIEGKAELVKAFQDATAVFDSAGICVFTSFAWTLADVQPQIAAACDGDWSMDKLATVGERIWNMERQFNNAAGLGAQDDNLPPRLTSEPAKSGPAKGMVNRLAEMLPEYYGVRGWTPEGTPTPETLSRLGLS
# T2 sequence (Q5P142 1-424): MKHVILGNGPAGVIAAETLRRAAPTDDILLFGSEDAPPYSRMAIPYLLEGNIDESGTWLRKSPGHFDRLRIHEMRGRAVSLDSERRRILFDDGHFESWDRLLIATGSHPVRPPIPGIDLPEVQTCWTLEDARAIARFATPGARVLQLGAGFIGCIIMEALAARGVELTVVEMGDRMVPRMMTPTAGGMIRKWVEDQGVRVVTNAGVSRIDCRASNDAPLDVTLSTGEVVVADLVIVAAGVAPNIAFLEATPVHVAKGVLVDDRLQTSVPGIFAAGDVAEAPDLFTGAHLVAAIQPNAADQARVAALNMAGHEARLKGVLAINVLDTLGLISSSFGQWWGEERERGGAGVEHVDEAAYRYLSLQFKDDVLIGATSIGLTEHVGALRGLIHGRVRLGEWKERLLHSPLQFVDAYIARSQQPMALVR
# T2 sequence (Q5P144 1-158 partner): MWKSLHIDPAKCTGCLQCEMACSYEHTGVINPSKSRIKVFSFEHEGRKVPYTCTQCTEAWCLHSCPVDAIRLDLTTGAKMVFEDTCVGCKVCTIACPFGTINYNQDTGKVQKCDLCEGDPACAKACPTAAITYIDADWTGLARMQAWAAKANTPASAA
# [5] = target: AOR enzyme from Thermococcus strain ES-1; settings: reducing acetic acid to acetaldehyde with reduced methyl viologen
# [6] = system: [NiFe] dehydrogenase from Ralstonia eutropha; settings: same Km expressed as per cent H2
compound,measurement,setting,value
"NC(=O)c1ccc[n+]([C@@H]2O[C@H](COP(=O)([O-])OP(=O)(O)OC[C@H]3O[C@@H](n4cnc5c(N)ncnc54)[C@H](O)[C@@H]3O)[C@@H](O)[C@H]2O)c1 [NAD+, nicotinamide adenine dinucleotide]","maximum observed reaction rate, Vmax",[1],12.5 mM/min/mg
"NC(=O)c1ccc[n+]([C@@H]2O[C@H](COP(=O)([O-])OP(=O)(O)OC[C@H]3O[C@@H](n4cnc5c(N)ncnc54)[C@H](O)[C@@H]3O)[C@@H](O)[C@H]2O)c1 [NAD^+, nicotinamide adenine dinucleotide]",Km,[2]; read-out: Km (NAD^+),560 µM
same,Km,[3],53 µM
same,Km,[4],63 µM
CC(=O)O [acetic acid],kinetic rate constant (kcat),[5],1.6 turnovers of the catalyzed reaction per second
[HH] [hydrogen],Km,"[2]; 1.4-5% H2, read-out: Km (hydrogen)",11 to 37 µM
same,Ki,"[2]; hyperbaric conditions, read-out: Ki (inhibition by H2)",1460 µM
hydrogen [H2],"Km (hydrogen), as H2 content",[6],1.4-5 % H2
